Data as given in the Kinase Knowledgebase extract (Sharma et al. 2016).

target: EGFR (human) (UniProt P00533); details: hl-60
Sequence (P00533 whole entry, looked up): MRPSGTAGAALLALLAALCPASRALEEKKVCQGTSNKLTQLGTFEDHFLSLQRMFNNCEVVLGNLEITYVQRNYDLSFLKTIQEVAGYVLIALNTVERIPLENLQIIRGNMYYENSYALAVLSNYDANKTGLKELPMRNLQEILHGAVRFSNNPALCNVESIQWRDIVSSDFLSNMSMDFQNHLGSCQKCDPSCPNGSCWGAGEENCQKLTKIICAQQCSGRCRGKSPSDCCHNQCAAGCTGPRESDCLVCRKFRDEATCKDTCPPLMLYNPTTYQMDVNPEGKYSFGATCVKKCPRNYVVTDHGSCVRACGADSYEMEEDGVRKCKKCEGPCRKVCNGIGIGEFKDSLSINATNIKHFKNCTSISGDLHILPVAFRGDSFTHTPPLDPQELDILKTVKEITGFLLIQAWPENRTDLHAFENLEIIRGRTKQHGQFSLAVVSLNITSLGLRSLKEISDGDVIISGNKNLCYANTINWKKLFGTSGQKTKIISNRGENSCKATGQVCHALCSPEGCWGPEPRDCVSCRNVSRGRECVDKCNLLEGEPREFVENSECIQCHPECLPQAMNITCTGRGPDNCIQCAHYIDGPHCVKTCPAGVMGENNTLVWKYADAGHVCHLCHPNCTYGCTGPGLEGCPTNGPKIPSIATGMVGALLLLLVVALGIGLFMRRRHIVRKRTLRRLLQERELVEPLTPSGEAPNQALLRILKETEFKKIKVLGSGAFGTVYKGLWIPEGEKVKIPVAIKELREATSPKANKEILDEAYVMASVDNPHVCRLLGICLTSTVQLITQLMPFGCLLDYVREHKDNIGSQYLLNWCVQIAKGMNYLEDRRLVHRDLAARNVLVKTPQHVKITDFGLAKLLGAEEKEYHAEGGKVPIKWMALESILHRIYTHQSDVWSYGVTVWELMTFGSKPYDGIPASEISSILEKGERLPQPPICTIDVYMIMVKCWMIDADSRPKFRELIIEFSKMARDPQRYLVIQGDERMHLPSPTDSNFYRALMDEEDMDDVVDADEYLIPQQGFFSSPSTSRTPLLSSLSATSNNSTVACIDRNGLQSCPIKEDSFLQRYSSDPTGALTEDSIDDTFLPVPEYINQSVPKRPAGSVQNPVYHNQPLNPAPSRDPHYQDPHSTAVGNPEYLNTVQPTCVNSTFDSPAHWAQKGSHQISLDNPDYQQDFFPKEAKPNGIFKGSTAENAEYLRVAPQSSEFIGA

**Q.** Which IC50 does the source give for O=C(CCCCCC(=O)Nc1ccc(O)c(C(=O)Nc2cccc(F)c2)c1)NO here?
**A.** > 100 µM

**Q.** With O=C(CCCCCC(=O)Nc1ccc(O)c(C(=O)Nc2ccc(Cl)c(C(F)(F)F)c2)c1)NO as the compound, how does the IC50 read?
**A.** > 100 µM

**Q.** With O=C(CCCCCC(=O)Nc1ccc(O)c(C(=O)Nc2ccc(F)c(F)c2)c1)NO as the compound, how does the IC50 read?
**A.** > 100 µM

**Q.** Which IC50 does the source give for O=C(CCCCCC(=O)Nc1ccc(O)c(C(=O)Nc2ccc(F)c(Cl)c2)c1)NO here?
**A.** > 100 µM

**Q.** How did the IC50 turn out when O=C(CCCCCC(=O)Nc1ccc(O)c(C(=O)Nc2cccc(C(F)(F)F)c2)c1)NO was run?
**A.** > 100 µM

**Q.** How did the IC50 turn out when C#Cc1cccc(NC(=O)c2cccc(NC(=O)CCCCCC(=O)NO)c2)c1 was run?
**A.** > 100 µM

**Q.** How did the IC50 turn out when O=C(CCCCCC(=O)Nc1ccc(O)c(C(=O)Nc2ccc(OCc3cccc(F)c3)c(Cl)c2)c1)NO was run?
**A.** > 100 µM

**Q.** Which IC50 does the source give for O=C(CCCCCC(=O)Nc1ccc(O)c(C(=O)Nc2ccc(Cl)c(Cl)c2)c1)NO here?
**A.** > 100 µM

**Q.** How did the IC50 turn out when C#Cc1cccc(NC(=O)c2cc(NC(=O)CCCCCC(=O)NO)ccc2O)c1 was run?
**A.** > 100 µM

**Q.** With C#Cc1cccc(NC(=O)c2cc(NC(=O)CCCCCCC(=O)NO)ccc2O)c1 as the compound, how does the IC50 read?
**A.** > 100 µM
